From patent US5169856A, “Piperidinoalkyl derivatives of carboxylic acid amides” (priority 1988, dated 1992)
Structures can show the parent of a compound that is named as a salt.

Target: T1, acetylcholinesterase (Rattus norvegicus, UniProt P37136)
T1 construct: S1 fraction of the cerebral cortex of male Wistar rats, the enzyme source; from tissue; host or cells: S1 fraction of the cerebral cortex of male Wistar rats
Assay: Inhibition of cholinesterase activity, radiometric ([acetyl-3H]-acetylcholine), S1 fraction of rat cerebral cortex
Type: biochemical, male Wistar rats
Conditions: 15 min preincubation at room temperature, [acetyl-3H]-acetylcholine final 200 μM, 30 min, read-out: Anti-acetylcholinesterase activity IC50
Experimental: Cholinesterase activity was measured radiometrically by the method of Johnson and Russell^1), modified by Kleinberger and Yanal^2), with a slight modification.
S1 fraction of the cerebral cortex of male Wistar rats, the enzyme source, was preincubated in a scintillation vial with drugs for 15 min at room temperature, and then [acetyl-^3 H]-acetylchollne (final 200 μM) was added and incubated further for 30 min. The reaction was terminated by adding solution containing 1 M chloroacetic acid, followed by toluene-based scintillant, and the vials were capped and shaken to transfer the product, [^3 H]-acetic acid, to toluene phase. Then radioactivity in the toluene phase was counted by liquid scintillation spectrometry. Inhibitory activity of the test drug was expressed by 50%-inhibitory concentration (IC50), which was calculated by linear regression of log-probit transformation of the inhibition curve.

T1 sequence (P37136 32-614): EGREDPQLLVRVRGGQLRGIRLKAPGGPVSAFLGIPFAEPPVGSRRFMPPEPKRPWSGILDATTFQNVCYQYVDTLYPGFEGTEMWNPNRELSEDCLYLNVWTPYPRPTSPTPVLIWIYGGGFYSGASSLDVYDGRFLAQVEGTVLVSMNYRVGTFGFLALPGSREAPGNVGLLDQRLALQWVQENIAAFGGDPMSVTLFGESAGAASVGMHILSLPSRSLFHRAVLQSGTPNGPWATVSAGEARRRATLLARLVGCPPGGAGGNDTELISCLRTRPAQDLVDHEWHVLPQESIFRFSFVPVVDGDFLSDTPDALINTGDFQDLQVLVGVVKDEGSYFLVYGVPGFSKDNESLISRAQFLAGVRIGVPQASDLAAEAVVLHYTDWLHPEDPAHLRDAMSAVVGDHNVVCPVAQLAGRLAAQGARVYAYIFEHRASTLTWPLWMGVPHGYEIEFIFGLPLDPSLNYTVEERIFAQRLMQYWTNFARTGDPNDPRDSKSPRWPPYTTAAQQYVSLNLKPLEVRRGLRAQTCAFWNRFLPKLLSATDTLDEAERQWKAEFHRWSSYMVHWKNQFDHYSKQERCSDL

Row | Compound | IC50 [µM]
1 | O=C(/C=C/c1ccccc1)NCCC1CCN(Cc2ccccc2)CC1 [Example 1, (E)-3-Phenyl-N-[2-(1-benzylpiperidin-4-yl)ethyl]-2propenamide.hydrochloride] | 9.6
2 | CN(CCC1CCN(Cc2ccccc2)CC1)C(=O)/C=C/c1ccccc1 [Example 2, (E)-3-Phenyl-N-methyl-N-[2-(1-benzylpiperidin-4-yl)ethyl]-2-propenamide.hydrochloride] | 18
3 | CC(=O)N(CCC1CCN(Cc2ccccc2)CC1)C(=O)/C=C/c1ccccc1 [Example 3, (E)-3-Phenyl-N-acetyl-N-[2-(1-benzylpiperidin-4yl)ethyl]-2-propenamide.hydrochloride] | 0.64
4 | CC(=Cc1ccccc1)C(=O)NCCC1CCN(Cc2ccccc2)CC1 [Example 4-1] | 8.1
5 | O=C(NCCC1CCN(Cc2ccccc2)CC1)C(=Cc1ccccc1)c1ccccc1 [Example 4-2] | 3.5
6 | O=C(C=Cc1cccnc1)NCCC1CCN(Cc2ccccc2)CC1 [Example 4-3] | 2
7 | O=C(C=Cc1ccco1)NCCC1CCN(Cc2ccccc2)CC1 [Example 4-4] | 9.9
8 | O=C(C=Cc1cccs1)NCCC1CCN(Cc2ccccc2)CC1 [Example 4-5] | 13
9 | COc1ccc(C=CC(=O)NCCC2CCN(Cc3ccccc3)CC2)cc1OC [Example 4-6] | 2.6
10 | COc1cc2c(cc1OC)CCC(C(=O)NCCC1CCN(Cc3ccccc3)CC1)=C2 [Example 4-7] | 1.2
11 | O=C(C=Cc1ccc([N+](=O)[O-])cc1)NCCC1CCN(Cc2ccccc2)CC1 [Example 4-8] | 2.8
12 | N#Cc1ccc(C=CC(=O)NCCC2CCN(Cc3ccccc3)CC2)cc1 [Example 4-9] | 3.3
13 | CS(=O)(=O)c1ccc(C=CC(=O)NCCC2CCN(Cc3ccccc3)CC2)cc1 [Example 4-10] | 1.6
14 | Cc1ccc(C=CC(=O)NCCC2CCN(Cc3ccccc3)CC2)cc1 [Example 4-11] | 15
15 | O=C(C=Cc1ccc(Cl)cc1)NCCC1CCN(Cc2ccccc2)CC1 [Example 4-12] | 9.2
